According to patent publication US8778401B2, “Mesoporous material excipients for poorly aqueous soluble ingredients” (Agency for Science, Technology and Research, priority 2008, dated 2014):
Each block holds one compound with its values, some of them ahead of it.

Columns and labels:
Type in all cases: physicochemical
[1] = Dissolution of spray-dried indomethacin with SBA-15 in pH 6.8 phosphate buffer; conditions: 900 mL of pH 6.8 phosphate buffer
Description: FIG. 15 illustrates dissolution profiles of spray-dried indomethacin with SBA-15 in powder form and tablet form, and a comparison with raw indomethacin crystal. (900 mL of pH 6.8 phosphate buffer, 50 mg spray-dried indomethacin with SBA-15 in powder form or tablet with 800 mg cornstarch at 1 ton press, raw crystal form is 25 mg).

[2] = Storage stability of the amorphous form at 40° C./75% RH (XRD); conditions: same conditions (40° C./75% RH) for just one week
Description: The storage stability was tested in severe storage condition of 75% relative humidity and temperature of 40° C., denoted as 40° C./75% RH.
A broad peak at 2-θ of 15-30° is typical in diffraction patterns of X-ray amorphous silica.
The amorphous state of these drugs formed by spray drying with mesoporous materials is stable after being subject to stress conditions of 40° C./75% RH for at least six months.

[3] = Dissolution test of ibuprofen formulations (USP dissolution tester, online UV); conditions: 900 mL 0.1N HCl at 37° C., 100 rpm
Description: The suspension was spray-dried in a Buchi Spray Drier B290. The inlet temperature was set to 81° C. and the outlet temperature was ˜50° C. The pump speed was set to “20”. […] Stirring speed is 100 rpm. Sample was taken by auto sampling system at interval of 5 min. UV reading was taken at wavelength 222 nm.
The dissolution profile was measured using VK7010 (Varian Co) USP dissolution tester with flow cell online UV-vis analysis system. Stirring rate is 100 rpm and vessel temperature is set at 37° C.
The dissolution is performed using the same method as in Example 1.

dissolution within 15 min [1]: 25%
SMILES: COc1ccc2c(c1)c(CC(=O)O)c(C)n2C(=O)c1ccc(Cl)cc1 [commercial indomethacin, indomethacin]

stability of amorphous form after storage [2]: re-crystallized
SMILES: COc1ccc2c(c1)c(CC(=O)O)c(C)n2C(=O)c1ccc(Cl)cc1 [indomethacin]

Dissolution test data 15 min ([3]; 25 mg ibuprofen or equivalent, 15 min): 17.5%
Dissolution test data 30 min ([3]; 25 mg ibuprofen or equivalent, 30 min): 25.6%
Dissolution test data 45 min ([3]; 25 mg ibuprofen or equivalent, 45 min): 35.6%
dissolved in 15 min ([3]; powder form, 15 min): 17.5%
dissolved within 15 min, tablet form ([3]; tablet with 0.8 g cornstarch, 1 ton press, 15 min): 16.4%
SMILES: CC(C)Cc1ccc(C(C)C(=O)O)cc1 (stereo not shown) [pure ibuprofen crystal, ibuprofen]
